Each structure is given as a SMILES string.

Chain of USP7 (Q93009 whole entry): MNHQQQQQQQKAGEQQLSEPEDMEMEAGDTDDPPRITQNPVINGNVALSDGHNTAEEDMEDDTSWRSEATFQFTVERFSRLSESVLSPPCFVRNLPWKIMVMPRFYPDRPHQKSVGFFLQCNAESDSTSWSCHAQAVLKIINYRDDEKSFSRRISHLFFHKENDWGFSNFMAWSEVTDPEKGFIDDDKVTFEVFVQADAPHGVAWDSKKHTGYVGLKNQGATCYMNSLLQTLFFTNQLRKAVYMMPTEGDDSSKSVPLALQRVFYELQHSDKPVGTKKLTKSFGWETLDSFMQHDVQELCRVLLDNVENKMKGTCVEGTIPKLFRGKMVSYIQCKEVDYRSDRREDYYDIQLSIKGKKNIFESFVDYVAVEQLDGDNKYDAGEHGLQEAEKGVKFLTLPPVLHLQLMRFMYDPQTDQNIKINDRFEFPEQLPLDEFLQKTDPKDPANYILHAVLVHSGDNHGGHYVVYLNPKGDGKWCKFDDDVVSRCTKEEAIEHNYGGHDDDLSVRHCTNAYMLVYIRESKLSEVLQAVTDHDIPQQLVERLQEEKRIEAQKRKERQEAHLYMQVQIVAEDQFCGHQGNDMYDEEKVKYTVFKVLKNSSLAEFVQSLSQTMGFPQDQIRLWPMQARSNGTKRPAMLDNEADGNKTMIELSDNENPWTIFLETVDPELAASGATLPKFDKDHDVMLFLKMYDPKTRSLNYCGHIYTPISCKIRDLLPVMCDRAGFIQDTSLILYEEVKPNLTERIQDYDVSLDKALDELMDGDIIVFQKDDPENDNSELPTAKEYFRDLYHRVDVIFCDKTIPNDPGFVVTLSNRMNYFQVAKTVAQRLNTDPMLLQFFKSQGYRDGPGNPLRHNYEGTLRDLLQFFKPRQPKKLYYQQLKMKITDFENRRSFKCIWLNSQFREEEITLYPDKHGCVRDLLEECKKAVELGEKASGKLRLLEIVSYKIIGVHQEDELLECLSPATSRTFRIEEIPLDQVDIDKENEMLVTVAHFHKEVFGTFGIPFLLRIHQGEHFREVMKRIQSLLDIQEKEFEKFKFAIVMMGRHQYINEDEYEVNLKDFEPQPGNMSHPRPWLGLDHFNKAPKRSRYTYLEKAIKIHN

One experiment concerns the target USP7 (Homo sapiens (Human), UniProt Q93009). In words: USP7 fluorescence polarisation (FP) biochemical assay, ubiquitin-Lys-TAMRA substrate. As to conditions: Table 4, biochemical assay; average of at least duplicate experiments; read-out: USP7 IC50. The method in brief: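 Full-length His6-USP7 (2.5 nM) incubated ± inhibitor (8-point dilutions, 200 to 0.1 μM before addition) in 50 mM HEPES pH 7.2, 150 mM NaCl, 0.5 mM EDTA, 5 mM DTT, 0.05% BSA, 0.05% CHAPS. Ubiquitin-Lys-TAMRA cleavage followed by FP (ex 530/em 575 nm) every 15 min for 1.5 h; normalised to no-compound control.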
(In general: Fluorescence polarisation rises when a labelled molecule tumbles more slowly, as on binding a larger partner.)
Usually IC50 stands for the concentration at which inhibition is half-maximal. Take `C[C@H](CC(=O)N1CCC(O)(Cn2cnc(N3CCN(Cc4ccccn4)CC3)cc2=O)CC1)c1ccccc1` [Example 159, (R)-3-((4-hydroxy-1-(3-phenylbutanoyl)piperidin-4-yl)methyl)-6-(4-(pyridin-2-ylmethyl)piperazin-1-yl)pyrimidin-4(3H)-one]: the IC50 was 1000 to 200000 nM.
Take `Cc1c(NCCN2CCCC2)ncn(CC2(O)CCN(C(=O)C[C@@H](C)c3ccccc3)CC2)c1=O` [Example 111, (R)-3-((4-Hydroxy-1-(3-phenylbutanoyl)piperidin-4-yl)methyl)-5-methyl-6-((2-(pyrrolidin-1-yl)ethyl)amino)pyrimidin-4(3H)-one]: the IC50 is 1000 to 200000 nM.
For `Cn1nc2c(=O)n(CC3(O)CCN(C(=O)C[C@H](c4ccccc4)C(F)(F)F)CC3)cnc2c1-c1ccccc1` [Example 37, (R)-6-((4-Hydroxy-1-(4,4,4-trifluoro-3-phenylbutanoyl)piperidin-4-yl)methyl)-2-methyl-3-phenyl-2H-pyrazolo[4,3-d]pyrimidin-7(6H)-one], the IC50 lay within 250 to 999 nM.
For the molecule `C[C@H](CC(=O)N1CCC(O)(Cn2cnc(-c3ccncc3)cc2=O)CC1)c1ccccc1` [Example 2, (R)-3-((4-Hydroxy-1-(3-phenylbutanoyl)piperidin-4-yl)methyl)-6-(pyridin-4-yl)pyrimidin-4(3H)-one], the IC50 lay in the range of 1000 to 200000 nM.
Turning to `O=C(c1cnc(C2CC2)o1)N1CCC(O)(Cn2cnc3c(cc(Cl)n3-c3ccc(C4CC4)cc3)c2=O)CC1` [Example 221, 6-Chloro-3-((1-(2-cyclopropyloxazole-5-carbonyl)-4-hydroxypiperidin-4-yl)methyl)-7-(4-cyclopropylphenyl)-3H-pyrrolo[2,3-d]pyrimidin-4(7H)-one], the IC50 is less than 250 nM.
With `C[C@H](CC(=O)N1CCC(O)(Cn2cnc(NCCO)cc2=O)CC1)c1ccccc1` [Example 103, (R)-3-((4-Hydroxy-1-(3-phenylbutanoyl)piperidin-4-yl)methyl)-6-((2-hydroxyethyl)amino)pyrimidin-4(3H)-one], the half-maximal inhibitory concentration (IC50) was in the range of 1000 to 200000 nM.
For the molecule `C[C@H](CC(=O)N1CCC(O)(Cn2cnc(NCCNc3ccccc3)cc2=O)CC1)c1ccccc1` [Example 146, (R)-3-((4-hydroxy-1-(3-phenylbutanoyl)piperidin-4-yl)methyl)-6-((2-(phenylamino)ethyl)amino)pyrimidin-4(3H)-one], the IC50 lay within 1000 to 200000 nM.
On to `O=C(CCC1CCC1)N1CCC(O)(Cn2cnc(NCCN3CCCC3)cc2=O)CC1` [Example 183, 3-((1-(3-Cyclobutylpropanoyl)-4-hydroxypiperidin-4-yl)methyl)-6-((2-(pyrrolidin-1-yl)ethyl)amino)pyrimidin-4(3H)-one], for which the 50% inhibitory concentration (IC50) was in the range of 1000 to 200000 nM.
As for `C[C@H](CC(=O)N1CCC(O)(Cn2cnc(NC3(C)COC3)cc2=O)CC1)c1ccccc1` [Example 155, (R)-3-((4-hydroxy-1-(3-phenylbutanoyl)piperidin-4-yl)methyl)-6-((3-methyloxetan-3-yl)amino)pyrimidin-4(3H)-one], the IC50 was in the range of 1000 to 200000 nM.
On to `Cn1cc(C(=O)N2CCC(O)(Cn3cnc4c(cc(Cl)n4-c4ccc(Cl)cc4)c3=O)CC2)cn1` [Example 229, 6-Chloro-7-(4-chlorophenyl)-3-((4-hydroxy-1-(1-methyl-1H-pyrazole-4-carbonyl)piperidin-4-yl)methyl)-3H-pyrrolo[2,3-d]pyrimidin-4(7H)-one], for which the IC50 fell in the range of 250 to 999 nM.
`C[C@H](CC(=O)N1CCC(O)(Cn2cnc(N3CC4(CCCO4)C3)cc2=O)CC1)c1ccccc1` [Example 169, (R)-3-((4-hydroxy-1-(3-phenylbutanoyl)piperidin-4-yl)methyl)-6-(5-oxa-2-azaspiro[3.4]octan-2-yl)pyrimidin-4(3H)-one]: the IC50 is 1000 to 200000 nM.
Still for that read-out and setting: the value for `C[C@H](CC(=O)N1CCC(O)(Cn2cnc3c(-c4ccc(C(=O)O)cc4)n(C)nc3c2=O)CC1)c1ccccc1` [Example 243, (R)-4-(6-((4-Hydroxy-1-(3-phenylbutanoyl)piperidin-4-yl)methyl)-2-methyl-7-oxo-6,7-dihydro-2H-pyrazolo[4,3-d]pyrimidin-3-yl)benzoic Acid] was 1000 to 200000 nM; that for `C[C@H](CC(=O)N1CCC(O)(Cn2cnc(N3CC4(CN(C)CCO4)C3)cc2=O)CC1)c1ccccc1` [Example 171, (R)-3-((4-hydroxy-1-(3-phenylbutanoyl)piperidin-4-yl)methyl)-6-(8-methyl-5-oxa-2,8-diazaspiro[3.5]nonan-2-yl)pyrimidin-4(3H)-one] was 1000 to 200000 nM.
Take `Cn1nc2c(=O)n(CC3(O)CCN(C(=O)C[C@H](c4ccccc4)C(F)(F)F)CC3)cnc2c1-c1ccc(CCN)cc1` [Example 87, (R)-3-(4-(2-Aminoethyl)phenyl)-6-((4-hydroxy-1-(4,4,4-trifluoro-3-phenylbutanoyl)piperidin-4-yl)methyl)-2-methyl-2H-pyrazolo[4,3-d]pyrimidin-7(6H)-one]: the 50% inhibitory concentration (IC50) was less than 250 nM.
Take `CN1CC=C(c2c3ncn(CC4(O)CCN(C(=O)C[C@H](c5ccccc5)C(F)(F)F)CC4)c(=O)c3nn2C)CC1` [Example 130, (R)-6-((4-Hydroxy-1-(4,4,4-trifluoro-3-phenylbutanoyl)piperidin-4-yl)methyl)-2-methyl-3-(1-methyl-1,2,3,6-tetrahydropyridin-4-yl)-2H-pyrazolo[4,3-d]pyrimidin-7(6H)-one]: the IC50 lay within 1000 to 200000 nM.
As to `O=C(c1cnc(C2CC2)o1)N1CCC(O)(Cn2cnc3c(cc(Cl)n3-c3ccccc3)c2=O)CC1` [Example 215, 6-Chloro-3-((1-(2-cyclopropyloxazole-5-carbonyl)-4-hydroxypiperidin-4-yl)methyl)-7-phenyl-3H-pyrrolo[2,3-d]pyrimidin-4(7H)-one], the IC50 is less than 250 nM.
Take `CC1(C(=O)N2CCC(O)(Cn3cnc4c(cc(Cl)n4-c4cccc(N5CCOCC5)c4)c3=O)CC2)CC1` [Example 226, 6-Chloro-3-((4-hydroxy-1-(1-methylcyclopropanecarbonyl)piperidin-4-yl)methyl)-7-(3-morpholinophenyl)-3H-pyrrolo[2,3-d]pyrimidin-4(7H)-one]: the IC50 is less than 250 nM.
As for `CC(=O)N(CCN1CCCC1)c1cc(=O)n(CC2(O)CCN(C(=O)C[C@@H](C)c3ccccc3)CC2)cn1` [Example 113, (R)—N-(1-((4-Hydroxy-1-(3-phenylbutanoyl)piperidin-4-yl)methyl)-6-oxo-1,6-dihydropyrimidin-4-yl)-N-(2-(pyrrolidin-1-yl)ethyl)acetamide, Formic Acid], the IC50 lay in the range of 1000 to 200000 nM.
With `O=C(c1cnc(C2CC2)o1)N1CCC(O)(Cn2cnc3c(cc(Cl)n3-c3cccc(Br)c3)c2=O)CC1` [Example 213, 7-(3-Bromophenyl)-6-chloro-3-((1-(2-cyclopropyloxazole-5-carbonyl)-4-hydroxypiperidin-4-yl)methyl)-3H-pyrrolo[2,3-d]pyrimidin-4(7H)-one], the IC50 is less than 250 nM.
As for `C[C@H](CC(=O)N1CCC(O)(Cn2cnc(/C=C/CN3CCCC3)cc2=O)CC1)c1ccccc1` [Example 51, (R,E)-3-((4-Hydroxy-1-(3-phenylbutanoyl)piperidin-4-yl)methyl)-6-(3-(pyrrolidin-1-yl)prop-1-en-1-yl)pyrimidin-4(3H)-one], the concentration for half-maximal inhibition (IC50) fell in the range of 1000 to 200000 nM.

Staying with this experiment, now noted: USP7 IC50, Table 4, biochemical assay; average of at least duplicate experiments.
For `C[C@H](CC(=O)N1CCC(O)(Cn2cnc(N3C[C@@H]4C[C@H]3CN(C)C4)cc2=O)CC1)c1ccccc1` (single isomer, unassigned) [Example 180], the IC50 is less than 250 nM.
